The values below come from ChEMBL document CHEMBL3272152, “Diester derivatives as apomorphine prodrugs” (J Med Chem, 1976).

Data set [1] in a line: Toxicity in ip dosed rat. The class given is organism-based. The following applies: in vivo.
For data set [2], the system named is Rattus norvegicus. Nature of the data set: Induction of stereotyped gnawling behavior in rat assessed as time duration of behavior administered by gastric tube. The class given is functional, organism-based.
Data set [3] concerns Rattus norvegicus. Put plainly: Induction of stereotyped gnawling behavior in rat assessed as time duration at 30 umol/kg, ip relative to control. The class given is functional.
The test system of data set [4] is Rattus norvegicus. Put plainly: Induction of stereotyped gnawling behavior in rat assessed as time duration at 100 umol/kg, ip relative to control. The class given is functional.
Data set [5] has as its system Rattus norvegicus. Put plainly: Induction of stereotyped gnawling behavior in rat assessed as time duration at 200 umol/kg, ip relative to control. The class given is functional.
Data set [6] deals with Rattus norvegicus. Nature of the data set: Induction of stereotyped gnawling behavior in ip dosed rat assessed as time duration. The class given is functional, organism-based.
In data set [7] the test system is Rattus norvegicus. Put plainly: Induction of turning behavior in rat at 50 to 200 umol/kg, ip. The class given is functional, organism-based.
The subject of data set [8] is Striatum. Put plainly: Induction of cAMP production in rat corpus striatum at 10 to 100 uM. Type of data set: functional, tissue-based. (In general: Cyclic AMP is a second messenger, typically raised through Gs and lowered through Gi signalling.)
Data set [9] has as its system Striatum. Put plainly: Induction of cAMP production in rat corpus striatum at 10 to 100 uM in presence of rat liver. The class given is functional, tissue-based.
Data set [10] deals with Liver. Put plainly: Prodrug conversion in rat liver at 0.4 mM after 60 mins. Type of data set: ADME, tissue-based. The following applies: 1 h, 400 µM.
Data set [11] deals with Brain. Put plainly: Drug uptake in ip dosed mouse brain. The class given is ADME, organism-based. The following applies: in vivo.
For data set [12], the system named is Rattus norvegicus. Put plainly: Induction of stereotyped gnawling behavior in ip dosed rat assessed as latency to peak score of stereotyped behavior. Type of data set: functional.

Molecules are shown by their SMILES. Activity calls are given as the source filed them. No cut-off for these calls is given here.

On to `CN1CCc2cccc3c2[C@H]1Cc1ccc(OC(=O)C(C)(C)C)c(OC(=O)C(C)(C)C)c1-3.Cl`, for which, in data set [1], the MTD was less than 300 mg/kg. Further, the outcome in data set [2] and in data set [8] was inactive. Moreover, the values for the Time in data set [3], in data set [4] and in data set [5] were 3.1 h, 5.1 h and 7.8 h, respectively. Besides, in data set [6], the Activity entry was “Dose-dependent effect”. For the same compound, the result in data set [7] was Active.

`CC(C)C(=O)Oc1ccc2c(c1OC(=O)C(C)C)-c1cccc3c1[C@@H](C2)N(C)CC3.Cl`: the MTD in data set [1] is less than 300 mg/kg. The result in data set [2] and in data set [8] was inactive. Further, the Time in data set [3] turned out to be 2.5 h; in data set [4], 3.3 h; in data set [5] it was 4.9 h. For the same compound, the Activity entry in data set [6] was “Dose-dependent effect”. Also, the result in data set [7] and in [9] was Active. Also, the Drug metabolism in [10] was 55%. Further, in data set [11], the Drug uptake entry is recorded as “Active”.

As to `CCC(=O)Oc1ccc2c(c1OC(=O)CC)-c1cccc3c1[C@@H](C2)N(C)CC3.Cl`, the MTD in data set [1] was less than 300 mg/kg. The result in [2], in data set [6] and in data set [8] was inactive. For the same compound, the Time is 1.6 h in data set [3], 1.9 h in data set [4], 2.9 h in [5] and 41 min in data set [12]. Besides, the result in data set [7] was Active.

In data set [1], `CN1CCc2cccc3c2[C@H]1Cc1ccc(OC(=O)c2ccccc2)c(OC(=O)c2ccccc2)c1-3` showed an MTD of less than 300 mg/kg. Moreover, the outcome in [2] and in data set [8] was inactive. For the same compound, the Time in data set [3] is 3.8 h; in data set [4], 6.3 h; in [5], 10.8 h; in data set [12], 83 min. In addition, the Activity result in [6] was “Dose-dependent effect”. Moreover, the result in data set [7] was Active. The Drug metabolism in data set [10] stood at 9%. The Drug uptake result in data set [11] is on record as “Active”.

The compound `CC(=O)Oc1ccc2c(c1OC(C)=O)-c1cccc3c1[C@@H](C2)N(C)CC3` returned an MTD in data set [1] of less than 300 mg/kg. Further, the result in [2] and in data set [8] was inactive. Also, the values for the Time in [3], in data set [4] and in [5] were 2.1 h, 2.3 h and 2.7 h, respectively. Besides, the result in data set [6] and in [7] was Active.

The compound `CN1CCc2cccc3c2[C@H]1Cc1ccc(O)c(O)c1-3.CN1CCc2cccc3c2[C@H]1Cc1ccc(O)c(O)c1-3.Cl.Cl.O` [APOMORPHINE HYDROCHLORIDE] had an MTD in data set [1] of less than 300 mg/kg. Moreover, the outcome in data set [2] was inactive. Besides, the Time was 1.6 h in data set [3], 1.9 h in data set [4], 2.6 h in data set [5] and 26 min in [12]. The outcome in data set [7] was Active.
